Earlier results on 1 compound are cited in US20250353815A1, “AMINO ACID HAVING FLUORINE AT a-POSITION, AND DERIVATIVE OF SAME” (SynCrest Inc., priority 2022, published 2025).

Series [1] concerns the target DNA methyltransferase. Conditions: inhibition of DNA methyltransferase.
For series [2], the system named is DNA methyltransferase.
Series [3] relates to human somatic cells.
In series [4] the test system is mouse somatic cells.

Broadly, the IC50 is the concentration that inhibits the measured activity by half. In the case of `O=C(O)[C@H](Cc1c[nH]c2ccccc12)N1C(=O)c2ccccc2C1=O` [RG-108, N-phthalyl-L-tryptophan], the IC50 in series [1] was 0.115 µM. The “binding to the active site of the enzyme in molecular modeling” value in series [2] is given as “bind directly to the active site of the enzyme”. Besides, the “reprogramming of somatic cells into iPS cells” value in series [3] and in series [4] was “promotes the reprogramming” in each case.
